In one series the test system is CYP71D20. To be noted: 20 to 50 μM substrate, 2 mM NADPH, 1 mg/mL microsomal protein, 30° C.
Series [1] deals with 5-epi-aristolochene hydroxylase (5EAH).
Method: (§1) The hexane solvent was removed under a gentle stream of N2 gas, and the dried residue was re-dissolved in acetone. […] Detection and quantification of capsidiol in the extracellular culture media was performed as reported previously (Chappell et al., Phytochemistry 26:2259-2260, 1987), and the amount of radioactivity incorporated into capsidiol was determined. For these determinations, samples were separated by TLC, and the zones corresponding to capsidiol were scraped from the plate for scintillation counting.
(§2) Inhibition studies were performed by the addition of the P450 inhibitors ancymidol (Coolbaugh et al., Plant Physiol. 62:571-576, 1978; Hoshino et al., Phytochemistry 38:609-613, 1995) and ketoconazole (Hoshino et al., Phytochemistry 38:609-613, 1995; Rademacher, Annu. Rev. Plant Physiol. Plant Mol. Biol. 51:501-531, 2000) directly to the cell cultures or enzyme assay mix. […] After a further 3 hour incubation period, the cells and media were collected. The amount of radioactivity incorporated into extracellular capsidiol was determined as described above. To evaluate secondary effects of these inhibitors, the level of inducible sesquiterpene cyclase activity in the collected cells was determined according to Vogeli et al. (Plant Physiol. 93:182-187, 1990), as well as in vitro assays with purified recombinant EAS (Back et al., Arch. Biochem. Biophys. 315:527-532, 1994) incubated with the indicated concentrations of ancymidol and ketoconazole.
The test system is the same in series [2]. In words: In vivo 5-epi-aristolochene hydroxylase assay in elicitor-treated tobacco cell suspension cultures. The following applies: Nicotiana tabacum, read-out: inhibition of apparent activity of 5EAH.
Method: as §1, §2
Series [3] has as its system induction of EAS in elicitor-treated cell cultures. In words: Inducible sesquiterpene cyclase (EAS) activity in extracts of elicitor-treated cells. The series is classed as cell-based, Nicotiana tabacum. The following applies: 12 h with cellulase.
In series [4] the target is T1, 5-epi-aristolochene synthase (EAS) (Nicotiana tabacum, UniProt Q40577).
T1 construct: made in house
T1 sequence (Q40577 1-548): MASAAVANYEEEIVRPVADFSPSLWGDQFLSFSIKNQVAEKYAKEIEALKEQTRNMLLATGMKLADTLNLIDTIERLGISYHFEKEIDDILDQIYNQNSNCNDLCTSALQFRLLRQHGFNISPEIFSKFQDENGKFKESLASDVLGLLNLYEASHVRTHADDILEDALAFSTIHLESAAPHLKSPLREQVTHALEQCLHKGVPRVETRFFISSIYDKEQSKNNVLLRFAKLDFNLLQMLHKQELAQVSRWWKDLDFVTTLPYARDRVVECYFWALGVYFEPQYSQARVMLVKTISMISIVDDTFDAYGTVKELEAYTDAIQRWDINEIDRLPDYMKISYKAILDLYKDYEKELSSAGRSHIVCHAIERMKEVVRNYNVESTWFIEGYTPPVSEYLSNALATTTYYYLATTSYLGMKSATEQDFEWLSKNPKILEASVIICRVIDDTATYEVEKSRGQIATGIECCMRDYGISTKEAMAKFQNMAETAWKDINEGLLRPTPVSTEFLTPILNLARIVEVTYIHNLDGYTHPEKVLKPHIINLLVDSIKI
In words: In vitro activity of purified recombinant EAS with inhibitors. The format is biochemical. On the procedure: The in vitro activity of a purified EAS preparation (Back and Chappell, J. Biol. Chem. 270:7375-7381, 1995) was also measured at the indicated inhibitor concentrations as an additional test for non-specific effects of these inhibitors (circles).

Series [5] has as its system 3-hydroxylase (5-epi-aristolochene to 1-deoxycapsidiol). To be noted: cited from earlier work.
Where [6] appears, read: concentrations as high as 100 μM.
Where [7] appears, read: microsomes incubated with 5-epi-aristolochene.

Like-named read-outs stand apart in the source and are kept apart here.

Method for CYP71D20: Reactions were carried out in 100 mM Tris-HCl, pH 7.5, to which microsomal protein was added to a final concentration of 1 mg/mL. Reactions were initiated by the addition of 2 mM NADPH. […] After incubations for variable lengths of time at 30° C., the reactions were extracted with two volumes of ethyl acetate. […] GC analysis was routinely performed with an HP5890 GC equipped with a Hewlett-Packard HP-5 capillary column (30 m×0.25 mm, 0.25 μm phase thickness) and FID as described previously (Rising et al., J. Am. Chem. Soc. 122:1861-1866, 2000). GC-MS analysis was performed at the University of Kentucky Mass Spectrometry Facility using a Varian 3400 gas chromatograph and a Finnigan INCOS 50 quadrupole mass selective detector. The GC was equipped with a J&W DB-5 ms capillary column (15 m×0.25 mm, 0.25 μm phase thickness) and run with He as the carrier gas (10 psi.). Splitless injections were done at an injection port temperature of 280° C. The column temperature was maintained at 40° C. for 1 minute and then increased to 280° C. at 10° C. per minute. Following separation by the GC column, samples were introduced directly into the electron impact ionization source. Mass spectra were acquired at 70 eV, scanning from 40-440 Da in 1 second.

Turning to `C=C(C)[C@@H]1CC=C2CCC[C@@H](C)[C@@]2(C)C1` [5-epi-aristolochene], the “metabolism by CYP71D20 microsomes (GC, GC-MS of products)” value with CYP71D20 is “metabolized to only one product with the same retention time as capsidiol”.
`COc1ccc(C(O)(c2cncnc2)C2CC2)cc1` (stereo not shown) [ancymidol]: the inhibition (commonly the drop in the measured response relative to a control, in per cent) in series [1] (25 µM) was about 50%. In addition, the inhibition at 75 µM in series [2] is over 80%. Also, the “effect on induction of EAS in elicitor-treated cell cultures” value in series [3] (setting [6]) is listed as “neither the in vitro activity of recombinant EAS nor the induction of EAS in the elicitor-treated cell cultures was significantly affected”. Moreover, the “effect on in vitro activity of recombinant EAS” value in series [4] (setting [6]) is listed as “neither the in vitro activity of recombinant EAS nor the induction of EAS in the elicitor-treated cell cultures was significantly affected”. The “effect on 1-deoxycapsidiol accumulation in vitro” value in series [5] (setting [7]) is “arrested”.
As to `[C-]#[O+]` [carbon monoxide], the “effect on 1-deoxycapsidiol accumulation in vitro” value in series [5] (setting [7]) is recorded as “arrested”.
Consider `C=C(C)[C@@H]1CC=C2CC[C@@H](O)[C@@H](C)[C@@]2(C)C1` [1-deoxycapsidiol], for which the “metabolism by CYP71D20 microsomes (GC, GC-MS of products)” value with CYP71D20 is given as “metabolized to only one product with the same retention time as capsidiol”.
Consider `CC(=O)N1CCN(c2ccc(OCC3COC(Cn4ccnc4)(c4ccc(Cl)cc4Cl)O3)cc2)CC1` (stereo not shown) [ketoconazole], for which the inhibition is about 50% in series [1] (25 µM) and 95% in series [1] (100 µM). The “concentration at which inducibility of cyclase activity in elicitor-treated cell extracts was inhibited” value in series [3] is given as “above 50 μM”. Also, in series [4] (indicated inhibitor concentrations (FIG. 3B)), the “effect on in vitro activity of EAS” value is on record as “does not appear to affect”. Moreover, in series [5], the “effect on 1-deoxycapsidiol accumulation in vitro” value was “arrested”.

The values above are taken from patent US10184118B2, “Cytochrome P450S and uses thereof” (University of Kentucky Research Foundation, priority 2001, dated 2019).
